Where two headings read alike, the source gives them in different places. Square brackets hold non-standard residues; d marks the D form. Ends that are not written are not given here. Peptide text beside a SMILES is read from it. d2Nal = N[C@H](Cc1ccc2ccccc2c1)C(=O)O; Hyp = O=C(O)[C@@H]1C[C@@H](O)CN1; 2Thi = N[C@@H](Cc1cccs1)C(=O)O; d2Thi = N[C@H](Cc1cccs1)C(=O)O
How the values were obtained:
isolated rat uterus = assay type: cell-based; details: for pA2 /RUT: activity class: not quantitated
Summary of the method: (§1)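 Antagonism of bradykinin-induced contraction in isolated rat uterus (natural or induced estrus) and guinea pig ileum. Antagonist preincubated 30 s before a double-ED50 bradykinin dose, with the dose raised until the response fell to that of a single ED50. pA2 is the negative log molar antagonist concentration achieving this (Schild method).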

pulmonary circulation = details: anesthetized rat; cited from earlier work
[1] = in vivo; cited from earlier work
[2] = tested on: isolated guinea pig ileum; assay type: cell-based; parameters: pA2 /GPI: activity class: scale not given here; details: for pA2 /GPI: activity class: not quantitated
Summary of the method: as §1

rat blood pressure = experiment: effects on blood pressure in the anesthetized rat (RBP), intraaortic and intravenous bolus; assay type: in vivo; parameters: RBP-IA: activity class / RBP-IV: activity class: scale not given here; details: for RBP-IV: activity class / RBP-IV: agonist potency as percent of BK potency: intravenous bolus; for % DESTR (metabolic breakdown of BK-like agonists in RBP assay): relative to BK = 100%
Method: The in vivo effects of bradykinin antagonists on blood pressure in the anesthetized rat are determined according to the assay described by Roblero, Ryan and Stewart (Res. Commun. Pathol. Pharmacol. 6:207, 1973). The antagonists also produce inhibition of the bradykinin response when injected as a bolus admixture of bradykinin plus antagonist by either the ia or iv route of administration.

[3] = rat blood pressure, intraaortic bolus

| Molecule | pA2 /RUT: activity class (isolated rat uterus; isolated rat uterus) | pA2 /GPI: activity class ([2]; isolated guinea pig ileum) | RBP-IA: activity class (rat blood pressure; [3]) | RBP-IV: activity class (rat blood pressure; rat blood pressure) | pA2 /RUT: agonist potency as percent of BK potency (isolated rat uterus; isolated rat uterus) | pA2 /GPI: agonist potency as percent of BK potency ([2]; isolated guinea pig ileum) | RBP-IA: agonist potency as percent of BK potency (rat blood pressure; [3]) | RBP-IV: agonist potency as percent of BK potency (rat blood pressure; rat blood pressure) | % DESTR (metabolic breakdown of BK-like agonists in RBP assay) (rat blood pressure) | also measured |
| --- | --- | --- | --- | --- | --- | --- | --- | --- | --- | --- |
| RPPGFSPFR [bradykinin, Arg-Pro-Pro-Gly-Phe-Ser-Pro-Phe-Arg] |  |  |  |  |  |  |  |  |  | pD2 value (negative log of dose causing half maximal contraction) (isolated rat uterus; rat uterus): 7.9; destruction on a single passage through the pulmonary circulation (pulmonary circulation): 98-99%; half life in the systemic circulation [1]: less than 30 seconds; pD2 value (negative log of dose causing half maximal contraction) ([2]; guinea pig ileum): 7.4 |
| CC(C)[C@@H](N)C(=O)N1CCC[C@H]1C(=O)N1C[C@H](O)C[C@H]1C(=O)NCC(=O)N[C@@H](Cc1ccccc1)C(=O)N[C@@H](CO)C(=O)N[C@H](Cc1ccccc1)C(=O)N[C@@H](Cc1ccccc1)C(=O)N[C@@H](CCCNC(=N)N)C(=O)O [Example 15, DVal-Pro-Hyp-Gly-Phe-Ser-DPhe-Phe-Arg] (H-[dV]P[Hyp]GFS[dF]FR-OH) | 0 | 0 | 0 | 0 |  |  |  |  |  |  |
| [dK]KRPPGFSPRIY [Example 62] |  |  |  |  | 5% | 1% | 5% | 165% | 0% |  |
| CC(=O)N[C@@H](CCCNC(=N)N)C(=O)N1CCC[C@H]1C(=O)N1CCC[C@H]1C(=O)NCC(=O)N[C@@H](Cc1cccs1)C(=O)N[C@@H](CO)C(=O)N[C@H](Cc1ccccc1)C(=O)N[C@@H](Cc1cccs1)C(=O)N[C@H](CCCNC(=N)N)C(=O)O [Example 42, Ac-Arg-Pro-Pro-Gly-Thi-Ser-DPhe^7 -Thi-DArg] (Ac-RPPG[2Thi]S[dF][2Thi][dR]-OH) | 0 | 0 | 0 | 0 |  |  |  |  |  |  |
| CC[C@H](C)[C@H](NC(=O)[C@H](CCCNC(=N)N)NC(=O)[C@H](Cc1cccs1)NC(=O)[C@@H](Cc1ccccc1)NC(=O)[C@H](CO)NC(=O)[C@H](Cc1cccs1)NC(=O)CNC(=O)[C@@H]1C[C@@H](O)CN1C(=O)[C@@H]1CCCN1C(=O)[C@H](CCCNC(=N)N)NC(=O)[C@H](N)CCCNC(=N)N)C(=O)N[C@@H](Cc1ccc(O)cc1)C(=O)O [Example 68, DArg-Arg-Pro-Hyp-Gly-Thi-Ser-DPhe-Thi-Arg-Ile-Tyr] (H-[dR]RP[Hyp]G[2Thi]S[dF][2Thi]RIY-OH) |  |  |  |  |  |  |  |  |  | pA2 /RUT: agonist potency as percent of BK potency (isolated rat uterus): 0.02%; pA2 /GPI (antagonist potency) ([2]; isolated guinea pig ileum, number of tissues in parentheses): 6.7; RBP-IA: agonist potency as percent of BK potency (rat blood pressure; rat, in vivo): 7% |
| N=C(N)NCCC[C@@H](N)C(=O)N[C@H](Cc1ccc2ccccc2c1)C(=O)N1CCC[C@H]1C(=O)N1CCC[C@H]1C(=O)NCC(=O)N[C@@H](Cc1ccccc1)C(=O)N[C@@H](CO)C(=O)N[C@H](Cc1cccs1)C(=O)N[C@@H](Cc1ccccc1)C(=O)N[C@@H](CCCNC(=N)N)C(=O)O [Example 39, DArg-DNal-Pro-Pro-Gly-Phe-Ser-DThi-Phe-Arg] (H-[dR][d2Nal]PPGFS[d2Thi]FR-OH) |  | 0 | 0 | 0 |  |  |  |  |  | pA2 /RUT (antagonist potency) (isolated rat uterus): 5.6 |
| RPPGFSPFRIY [Example 59, Arg-Pro-Pro-Gly-Phe-Ser-Pro-Phe-Arg-Ile-Tyr] |  |  |  |  | 26% | 21% | 6% | 103% | 61% |  |
| N=C(N)NCCC[C@H](NC(=O)[C@H](Cc1ccccc1)NC(=O)[C@@H](Cc1ccccc1)NC(=O)[C@H](CO)NC(=O)[C@H](Cc1ccccc1)NC(=O)CNC(=O)[C@@H]1C[C@@H](O)CN1C(=O)[C@@H]1CCCN1C(=O)[C@H](N)Cc1ccc2ccccc2c1)C(=O)O [Example 30, DNa]-Pro-Hyp-Gly-Phe-Ser-DPhe-Phe-Arg] (H-[d2Nal]P[Hyp]GFS[dF]FR-OH) | 0 |  | 0 | 0 |  | 0.1% |  |  |  |  |
| CC[C@H](C)[C@H](NC(=O)[C@H](CCCNC(=N)N)NC(=O)[C@H](Cc1ccccc1)NC(=O)[C@@H]1CCCN1C(=O)[C@H](CO)NC(=O)[C@H](Cc1ccccc1)NC(=O)CNC(=O)[C@@H]1CCCN1C(=O)[C@@H]1CCCN1C(=O)[C@H](CCCNC(=N)N)NC(=O)[C@H](N)CCCNC(=N)N)C(=O)N[C@@H](Cc1ccc(O)cc1)C(=O)O [Example 60, DArg-Arg-Pro-Pro-Gly-Phe-Ser-Pro-Phe-Arg-Ile-Tyr] (H-[dR]RPPGFSPFRIY-OH) |  |  |  |  | 25% | 34% | 12% | 189% | 47% |  |
